{
  "source": "patent US12404303B2",
  "about": "“Polypeptide and use thereof” (NANJING ANJI BIOLOGICAL TECHNOLOGY CO., LTD., priority 2019, dated 2025)",
  "key": {"mycoplasma pneumoniae": {"tested_on": "mycoplasma pneumoniae", "assay": "Mouse pneumonia model, mycoplasma pneumonia", "type": "in vivo, BALB/C mice", "settings": "average values±standard deviation", "excerpt": "(§1) A mouse pneumonia model was successfully established by using a nasal drip method. BALB/C mice with a body weight of 18-24 g were selected, and then anesthetized with ether on day 0, day 1 and day 2, respectively, prepared streptococcus pneumoniae bacteria solution, adenovirus concentrated solution, mycoplasma pneumoniae, chlamydia pneumoniae, protozoa and pneumonia fungi were slowly dropped into the nasal cavity of the mice, so that the bacteria solutions entered the trachea and bronchi, and the bacteria solutions were prevented from flowing into the esophagus during the operation to avoid inactivation of the bacteria solutions, so that the mouse pneumonia model was established. After the model was successfully established, the polypeptide according to the present disclosure was administered, as shown in FIG. 7 and Table 9. […] The experimental results are represented on the basis of average values±standard deviation."}, "streptococcus pneumoniae": {"tested_on": "streptococcus pneumoniae", "assay": "Mouse pneumonia model, bacterial pneumonia", "type": "in vivo, BALB/C mice", "settings": "average values±standard deviation", "excerpt": "as §1"}, "pulmonary infections": {"tested_on": "pulmonary infections", "assay": "Mouse pneumonia model, pneumonia caused by pulmonary infections", "type": "in vivo, BALB/C mice", "settings": "average values±standard deviation", "excerpt": "as §1"}, "pneumonia fungi": {"tested_on": "pneumonia fungi", "assay": "Mouse pneumonia model, fungal pneumonia", "type": "in vivo, BALB/C mice", "settings": "average values±standard deviation", "excerpt": "as §1"}, "skin fibrosis model mice": {"tested_on": "skin fibrosis model mice", "assay": "Skin fibrosis model induced by bleomycin, HYP in skin tissue", "type": "in vivo, C57/BL black mice", "settings": "skin tissue of the mouse back; 10 mg/kg subcutaneous twice a day, 28 days, vs model group; FIG. 6", "procedure": "Bleomycin (10 μg/mL) was injected subcutaneously every day for 28 days to form skin fibrosis. During the modeling period, the administration groups were given polypeptide drugs every day for treatment, with 10 mice in each group. After modeling, the mice were killed on the next day, and the skin tissue of the mouse back was taken to detect the content of HYP in the skin tissue. [table]"}, "LX-2 cells": {"tested_on": "LX-2 cells", "assay": "Proliferation of LX-2 cells induced by TGF-β1 (MTT, in vitro hepatic fibrosis model)", "type": "cell-based", "settings": "polypeptide 1 μmol/L, TGF-β1 10 ng/mL, 48 hours", "procedure": "LX-2 cells were cultured in 1640 medium containing 10% FBS, and cultured in an incubator with 5% CO2 at 37° C. The medium was replaced every two days, and subcultured according to the cell density. The LX-2 cells in a logarithmic growth phase were digested with 0.25% pancreatin to make cell suspension. The density of the cells was adjusted to 4×10^5 cells/mL, and the cells were inoculated into 96-well plates with 100 μL per well and cultured overnight. On the second day, TGF-β1 was added to induce the proliferation and activation of the LX-2 cells, and the polypeptide drugs were administrated at 1 μmol/L. TGF-β1 (10 ng/mL) was added to each group except the blank group. The cells were cultured in the incubator for 48 hours, and then 10 μL of MTT was added to each well. The MTT was removed after 4 hours, and 150 μL of DMSO was added for reaction for 5 min. An OD value was measured by a microplate reader at 570 nm."}, "adenovirus": {"tested_on": "adenovirus", "assay": "Mouse pneumonia model, viral pneumonia", "type": "in vivo, BALB/C mice", "settings": "average values±standard deviation", "excerpt": "as §1"}, "[1]": {"tested_on": "SD rats with renal fibrosis", "assay": "Renal fibrosis animal model (ureter ligation), TGF-β1 in serum", "type": "in vivo", "settings": "7.5 mg/kg subcutaneous twice a day, 14 days, vs model group; FIG. 4", "procedure": "A renal fibrosis animal model was established. SD rats were anesthetized with 4% chloral hydrate, injected with 1 mL/100 g intraperitoneally, fixed to an operation board, and sterilized in an operation area for later use. […] Muscular layers and abdominal walls were sewed layer by layer, the suture was disinfected with alcohol. After SD rats woke up, the rats were put into a cage for feeding. In the blank group, ureter was not ligated, and other steps were the same. Then, the animals fell into a blank group, a model group, and polypeptide administration groups, and the administration was started on the second day after the operation, twice a day for 14 days. After administration for 14 days, blood was taken and supernatant was taken to detect the content of TGF-β1 in serum. [table]"}, "protozoa": {"tested_on": "protozoa", "assay": "Mouse pneumonia model, protozoal pneumonia", "type": "in vivo, BALB/C mice", "settings": "average values±standard deviation", "excerpt": "as §1"}, "[2]": {"tested_on": "SD rats with bleomycin-induced pulmonary fibrosis", "assay": "Bleomycin-induced pulmonary fibrosis animal model", "type": "in vivo", "settings": "bleomycin 5 mg/kg intratracheal, polypeptides 7.5 mg/kg subcutaneous twice a day, positive drug 25 mg/kg intragastric once a day, 14 days", "procedure": "SD rats were anesthetized by intraperitoneal injection of 1 mL/100 g 4% chloral hydrate. After anesthesia, the rats were fixed and their necks were disinfected by using cotton with 75% alcohol. The skin of the rat neck was longitudinally cut with scissors, and the fascia and muscle were longitudinally bluntly torn with tweezers to expose the trachea. A syringe was inserted into the trachea to inject 5 mg/kg bleomycin, while a blank group was injected with an equal amount of normal saline. Then a rat plate was quickly erected and rotated, the rats' breathing was observed, the neck wound was sterilized after rotation and was sewn, and an amoxicillin anti-inflammatory drug was sprinkled on the suture. After the operation, the rats were put back into a dry and clean cage for resting, waiting was performed for awakening. The rats were awakened after about 1-2 hours, and then fed normally. On the 7th day after modeling, modeling group animals randomly fell into a model group, a Nintedanib positive drug group, polypeptide I, II, III and IV dosage groups, and a normal control group, and the groups were administered separately for an administration cycle of 14 days. Living situations of rats were observed every day and their weights were weighed."}, "myelofibrosis model mice": {"tested_on": "myelofibrosis model mice", "assay": "Myelofibrosis model induced by rh EPO", "type": "in vivo, Kunming mice", "design": "WBC / Hb / MCV / RDW: unit not given here", "settings": "10 mg/kg subcutaneous twice a day, 28 days", "procedure": "There were 10 mice in each group. The normal control group was injected with normal saline (0.3 mL for each mouse), and the remaining groups were injected with rh EPO (0.1 unit/gram, body weight, 0.3 mL for each mouse) intraperitoneally every day. After induction for two days, drug therapy was started, subcutaneous injection was given twice a day, and after continuous administration for 28 days, the mouse heart was punctured for blood extraction, some blood was used for peripheral blood analysis, some blood was centrifuged, and the supernatant was taken to measure the content of TGF-β1 in the serum of mice. [table]"}, "chlamydia pneumoniae": {"tested_on": "chlamydia pneumoniae", "assay": "Mouse pneumonia model, chlamydia pneumonia", "type": "in vivo, BALB/C mice", "settings": "average values±standard deviation", "excerpt": "as §1"}, "[3]": {"tested_on": "cardiac fibroblasts of rats", "assay": "Proliferation of cardiac fibroblasts of rats (MTT, in vitro myocardial fibrosis model)", "type": "cell-based", "settings": "1 μmol/L", "procedure": "The inhibitory effect of a polypeptide on cardiac fibroblasts of rats was detected by MTT assay. Cells were cultured in a DMEM medium containing 10% of FBS, the cytoplasm was made into 1×10^5/mL cell suspension, and 100 μL per well was inoculated into a 96-well plate. After the cells adhered to the wall, the medium was replaced with a serum-free DMEM medium, and the serum-free medium was discarded after 24 hours. The cells were cultured with different polypeptides of 1 μmol/L, and 5 multiple wells were set for each concentration. After 12, 24 and 48 hours separately, 10 μL of MTT was added to each well. After 4 hours, MTT was sucked out, and 150 μL of DMSO was added to each well. After reaction for 5 min, an OD value was measured at 570 nm by a microplate reader."}},
  "note": "No end group written: not given here.",
  "data": [
    {"sequence": "RGADRAGGGGPRCYRGE [Polypeptide III]", "values": [
      {"measurement": "Inhibitory effect on pulmonary infections, Mycoplasma pneumonia", "setting": "mycoplasma pneumoniae", "result": "43.93 ± 5.34"},
      {"measurement": "Inhibitory effect on pulmonary infections, Bacterial pneumonia", "setting": "streptococcus pneumoniae", "result": "42.29 ± 8.76"},
      {"measurement": "Inhibitory effect on pulmonary infections, Pneumonia caused by pulmonary infections", "setting": "pulmonary infections", "result": "56.18 ± 3.31"},
      {"measurement": "Inhibitory effect on pulmonary infections, Fungal pneumonia", "setting": "pneumonia fungi", "result": "62.88 ± 5.49"},
      {"measurement": "expression of HYP in the skin tissue", "setting": "skin fibrosis model mice", "result": "highly significantly different from the model group (*P<0.05)"},
      {"measurement": "inhibition of proliferation and activation of LX-2 cells, difference from model group", "setting": "LX-2 cells", "result": "significantly different from the model group (*P<0.05)"},
      {"measurement": "OD value", "setting": "LX-2 cells; MTT, 570 nm", "result": "0.63 ± 0.03"},
      {"measurement": "Inhibitory effect on pulmonary infections, Viral pneumonia", "setting": "adenovirus", "result": "65.49 ± 9.94"},
      {"measurement": "content of TGF-β1 in serum", "setting": "[1]", "result": "highly significantly different from the model group (**P<0.01)"},
      {"measurement": "Inhibitory effect on pulmonary infections, Protozoal pneumonia", "setting": "protozoa", "result": "64.29 ± 8.07"},
      {"measurement": "Survival rate (%)", "setting": "[2]", "result": 78.6, "unit": "%"},
      {"measurement": "content of TGF-β1 in serum", "setting": "myelofibrosis model mice; mouse serum, vs model group, FIG. 5", "result": "highly significantly different from the model group (**P<0.01)"},
      {"measurement": "Hb", "setting": "myelofibrosis model mice; peripheral blood", "result": "145 ± 17"},
      {"measurement": "MCV", "setting": "myelofibrosis model mice; peripheral blood", "result": "53 ± 8"},
      {"measurement": "RDW", "setting": "myelofibrosis model mice; peripheral blood", "result": "28 ± 1"},
      {"measurement": "WBC", "setting": "myelofibrosis model mice; peripheral blood", "result": "5.79 ± 1.23"},
      {"measurement": "Inhibitory effect on pulmonary infections, Chlamydia pneumonia", "setting": "chlamydia pneumoniae", "result": "54.40 ± 5.41"},
      {"measurement": "Optical density values, 12 hours", "setting": "[3]; 12 hours, MTT, 570 nm", "result": "0.329 ± 0.012"},
      {"measurement": "Optical density values, 24 hours", "setting": "[3]; 24 hours, MTT, 570 nm", "result": "0.402 ± 0.012"},
      {"measurement": "Optical density values, 48 hours", "setting": "[3]; 48 hours, MTT, 570 nm", "result": "0.612 ± 0.018"},
      {"measurement": "inhibition of the proliferation of cardiac fibroblasts of rats", "setting": "[3]; at 24 hours and 48 hours", "result": "could inhibit the proliferation"}
    ]}
  ]
}
